Read-outs that look alike come from different tables or passages of the source.
What was measured:
Mir155 reporter = Mir155 reporter Beta-Glo HTS assay (β-gal activity); type: cell-based, mouse; conditions: Mus musculus, 48 h, read-out: EC50, inhibition of Mir155 reporter expression
Method: To develop an assay for the HTS screen, CD4^+ T cells were purified from spleen and lymph nodes of the Mir155 reporter mice. The purified CD4^+ T cells were cultured under Th17 cell-polarizing conditions in twelve well plates following which differentiated Th17 cells were transferred and expanded in six well plates followed by a resting period of 2 days in T cell media (schema depicted in Fig. 1a). We first optimized the cell number to maximize the assay window. To this end, differentiated Th17 cells were plated at different cell densities in the wells of polystyrene 1536-well plates under Th17 polarizing conditions. T cell activation was accomplished using two protocols. In the first protocol, magnetic beads coupled to anti-CD3 and anti-CD28 antibodies (CD3/CD28 microbeads) were added to mediate T cell activation as induction of MiR155 expression requires engagement of the TCR CD3 complex (signal 1) plus the co-stimulatory molecule CD28 (signal 2). The cells along with the beads were incubated at 37 °C, 5% CO2 for 48 h and, subsequently, high-throughput quantitation of β-gal activity was performed after 30 min of incubation using the Beta-Glo Assay system (Fig. 1b).
The NPC collection was screened at seven concentrations (top concentration 46 µM; 1:5 dilution thereafter) and drug response curves for the compounds were generated using our qHTS curve class classification algorithm as described above.
CD4^+ cells were purified from spleens and lymph nodes of Mir155 reporter mice as described above. Briefly, single cell suspensions were prepared by mechanical disruption followed by lysis of red blood cells with 0.83% ammonium chloride. CD4^+ T cells were either isolated by FACS sorting (BD FACS Aria) or were positively selected using magnetic CD4 microbeads (Miltenyi Biotec)[43]. 1 million CD4^+ cells/well were cultured in anti-CD3/CD28 (1 µg/ml each) coated 12 well plates under Th17 polarization conditions following which differentiated Th17 cells were transferred and expanded in six well plates followed by a resting period of 2 days in T cell media. A cocktail containing 10 ng/ml each of IL-6, IL-1 β, IL-21 and TGF-β (0.5 ng/ml) and IFNγ, IL-4, IL-12 neutralizing antibodies (10 μg/ml) was used for the Th17 polarizing conditions. For the HTS assay, 2000 differentiated Th17 cells/well in Th17 polarizing media were added to Greiner-one high base solid bottom white tissue culture treated 1536 well plates (catalog # 789173-F) using a small cassette and a Multidrop Combi dispenser (Thermo Fisher Scientific Inc.,Waltham, MA). Compounds were added using a Kalypsys pintool (Columns 5–48) and magnetic beads coupled to anti-CD3 and anti-CD28 (CD3/CD28 microbeads) were added to mediate T cell activation. CD3/CD28 microbeads were not added to first 2 columns and those wells served as basal control. DMSO was added to columns 3 and 4 and served as 100% signal. The plates were incubated for 48 h at 37 °C, 5% CO2, 95% humidity covered with low evaporation stainless steel lids from Kalypsys. After 48 h of incubation, 5 µl of Beta-Glo reagent (Beta Glo Assay System, Promega) was added using a Bioraptor Flying Reagent Dispenser (Aurora Discovery-BD) and the plates were incubated at room temperature for 30 min. Luminescence signal was captured using a 10 s exposure with a ViewLux (Perkin Elmer) containing a luminescent filter. Beta Glo reagent consists of Beta Glo substrate and buffer that are combined to form the Beta Glo reagent (Beta Glo Assay System, Promega).

[1] = tested on: Th17 cells from Mir155 reporter mice; assay: HTS viability assay (CellTiter-Glo); type: cell-based, mouse; conditions: primary Th17 cells
Method: Next, the HTS assay was further validated for robustness by screening LOPAC1280, a collection of 1280 pharmacologically active compounds. The LOPAC collection contains biologically annotated compounds with diverse mechanism(s) including but not limited to pharma-developed tools, receptor ligands and approved drugs. Seven concentrations of each compound were assayed, ranging from 3 nM to 46 µM as five-fold dilutions. One assay plate was treated with DMSO to determine the assay robustness in the absence of compounds (Fig. 1d). A total of eight assay plates including DMSO plate were tested in the LOPAC pilot screen and the median assay parameter per plate was 21-fold signal-to-background (S/B) ratio and the median Z’-factor was 0.72 (Fig. 1e), thus further validating the robustness of this assay in a 1536-well format. Data was analyzed using a curve class classification algorithm which classifies dose responses in four categories (Class 1, 2, 3 and 4) based on the quality of curve fit to the data (r^2), the magnitude of the response (efficacy), and the number of asymptotes to the calculated curve. Compounds with a curve class of either − 1.1, − 1.2, − 2.1, − 2.2 in the primary assay were classified as pharmacologically active compounds. […] The LOPAC collection was additionally tested for toxic effects using the CellTiter-Glo Luminescent Cell Viability Assay (Promega) which measures ATP levels as a proxy for number of live cells to exclude toxic compounds. […] An ideal compound should antagonize Mir155 reporter with minimal effect on cell viability.
For the HTS viability assay, the T cells were purified, polarized, plated and treated with compounds as described above for HTS β-gal assay except Columns 1 and 2 had no cells and served as basal control. After 48 h of incubation, 3 μL of CellTiter-Glo reagent (Promega) was added using a Bioraptor Flying Reagent Dispenser (Aurora Discovery-BD)[50]. The plates were incubated for 15 min at room temperature and the luminescence signal was captured using a ViewLux (Perkin Elmer) containing a luminescent filter. […]

[2] = LC-MS analysis of compound stability
Method: We analyzed by liquid chromatography mass spectrometry (LC–MS) the 10 mM compound stock solutions in DMSO, stored at − 20 °C, that were used in the screening (older batch) versus the “fresh” solutions. […] Sample 2 is another sample that had been kept outside at room temperature for 30 days before evaluation.

[3] = tested on: IL-17 production in Th17 cells; assay: Intracellular IL-17 flow cytometric cytokine assay under Th17 polarization; type: cell-based, mouse; conditions: for IL-17+ cells, gated on live CD4+CD44high cells: DMSO 32% (panel b), 36.8% (panel c); for inhibition at 20 µM: Mus musculus, 96 h, read-out: down-regulation (inhibition) of IL-17 production compared to control
Method: (§1) It has been previously shown that IL-17 production is defective in miR-155 deficient cells. […] To test the hit compounds for IL-17 downregulation, we purified naive CD4^+ T cells from C57BL/6 mice and cultured them under Th17 polarization condition. Small molecules at multiple concentrations (20 µM, 10 µM and 5 µM) were added 18 h post-plating of CD4^+ T cells on anti-CD3/CD28 coated plates and again on day 2 of culture (schema depicted in Fig. 3a).
(§2) Spleens and lymph nodes were harvested from mice and single cell suspensions were prepared by mechanical disruption followed by lysis of red blood cells with 0.83% ammonium chloride. CD4^+ T cells were either isolated by FACS sorting (BD FACS Aria) or were positively selected using magnetic CD4 microbeads (Miltenyi Biotec). For intracellular IL-17 quantitation by flow cytometry, 0.25 million cells/ well were plated in anti-CD3/CD28 (1 µg/ml) coated 48 well plates. A cocktail containing 10 ng/ml each of IL-6, IL-1 β, IL-21 and TGF-β (0.5 ng/ml) and IFNγ, IL-4, IL-12 neutralizing antibodies (10 μg/ml) was used for the Th17 polarizing conditions. All recombinant cytokines were purchased from R&D Systems and crosslinking antibodies were purified from hybridomas (Harlan). Cells were treated with small molecules at indicated concentrations at 18 h and 48 h of cell plating. On day 4 of the culture, cells were stimulated with 20 ng/ml of phorbol 12-myristate 13-acetate (PMA) and ionomycin (1 μg/ml) for 4 h in the presence of brefeldin A. Following stimulation, cells were stained with fixable viability dye (eBioscience) and surface stained for CD44 and CD4, permeabilized using cytofix/cytoperm (BD biosciences) and subsequently, stained for intracellular IL-17. Foxp3/Transcription Factor Staining kit (eBioscience) kit was used for intranuclear staining of RORγt. Samples were acquired on BD Fortessa and analyzed using Flowjo (Tree star Inc).

CD4+ T cells = assay: Viability dye and CD44 activation staining in the IL-17 flow cytometric assay; type: cell-based; conditions: Fig. S2a
Method: as §1, §2

[4] = Th17 cells from Mir155 reporter mice, β-gal signal

CCCSc1ccc2nc(NC(=O)OC)[nH]c2c1 [albendazole, reference compound]
EC50 (Mir155 reporter): 2500 nM | cytotoxicity / cell viability [1]: not because of toxicity of the compounds | stability by LC–MS [2]: stable and pure | IL-17+ cells, gated on live CD4+CD44high cells ([3]; 20 µM): 14.2% | inhibition at 20 µM ([3]; CD4+ T): 55%

O=C(Nc1ncc([N+](=O)[O-])s1)c1cccs1 [tenonitrozole, reference compound]
live cells (fixable viability dye, Live-dead) (CD4+ T cells; DMSO 77.4% / 80.6%): 70.6% | CD4+ CD44+ cells (CD4+ T cells; DMSO 97.2% / 98.2%): 96.4% | EC50 (Mir155 reporter; [4]): 140 nM | cytotoxicity / cell viability [1]: not because of toxicity of the compounds | stability by LC–MS [2]: stable and pure | IL-17+ cells, gated on live CD4+CD44high cells ([3]; 20 µM): 10.4% | IL-17 / RORγt plot, percent cells, gated on live CD4+CD44high ([3]; Fig. S2b, DMSO 32.4% / 21.2%): 9.3% | inhibition at 20 µM ([3]; 20 µM, day 4, C57BL/6 CD4+ T cells): 68%

c1ccc2[nH]c(-c3cscn3)nc2c1 [thiabendazole, reference compound]
EC50 (Mir155 reporter; [4]): 5500 nM | cytotoxicity / cell viability [1]: not because of toxicity of the compounds | stability by LC–MS [2]: stable and pure | IL-17+ cells, gated on live CD4+CD44high cells ([3]; 20 µM): 31% | effect on IL-17 production ([3]; C57BL/6 CD4+ T cells, Th17 polarization): did not affect IL-17 production
